Reference: ChEMBL document CHEMBL1136017, “Computational studies on tetrahydropyrimidine-2-one HIV-1 protease inhibitors: improving three-dimensional quantitative structure-activity relationship comparative molecular field analysis models by inclusion of calculated inhibitor- and receptor-based properties” (J Med Chem, 2002)

molecular target: Human immunodeficiency virus type 1 protease (Human immunodeficiency virus 1, UniProt Q72874); experiment: Inhibitory activity against HIV-1 protease

Row | SMILES | Ki [nM]
1 | Nc1cccc(CN2C(=O)N[C@H](Cc3ccccc3)[C@H](O)[C@H]2CCc2ccccc2)c1 | 6.17
2 | N/C(=N\O)c1cccc(CN2C(=O)N[C@H](CCc3ccccc3)[C@@H](O)[C@H]2Cc2ccccc2)c1 | 0.24
3 | O=C(Nc1cccc(CN2C(=O)N(Cc3cccc(NC(=O)c4nccs4)c3)[C@H](Cc3ccccc3)[C@H](O)[C@H]2CCc2ccccc2)c1)c1nccs1 | 0.0302
4 | Cc1ccc(C(=O)Nc2cccc(CN3C(=O)N(Cc4cccc(NC(=O)c5ccc(C)cn5)c4)[C@H](Cc4ccccc4)[C@H](O)[C@H]3CCc3ccccc3)c2)nc1 | 0.0794
5 | Nc1cccc(CN2C(=O)N[C@H](CCc3ccccc3)[C@@H](O)[C@H]2Cc2ccccc2)c1 | 158
